In patent US20230295162A1 (EÖTVÖS LORÁND TUDOMÁNYEGYETEM, priority 2020, published 2023):

Tests used:
[1] = system: MDA-MB-231 breast cancer cell line; assay: CellTiter-Glo IC50 (Table 3); type: cell-based; conditions: Homo sapiens
Experimental: (§1) Some representative imipridones and ONC212 as reference were further tested on the following human malignant cell lines: PC3 and LNCap (prostate carcinoma); BxPC3, MiaPaCa2 and Panc1 (pancreatic cancer); A549, HCC827, H1993 and H520 (lung carcinoma); MDA-MB-453 and MDA-MB-231 (breast cancer) (see Table 2 and FIGS. 1-11).
(§2) Cell lines were maintained according to the instructions provided by ATCC (https://www.lgcstandards-atcc.org/) in a 5% CO2 humidified incubator maintained at 37° C. temperature. Effects of compounds on cell viability were measured via CellTiter-Glo® luminescent cell viability assay (Promega, Madison, WI, USA) Cells were plated at 1000 cells/well onto a flat-bottomed, white 96 well plate (BRANDplates, cat. no.: 781965). […] After the treatment, medium was removed and CellTiter-Glo® reagent was added. The luminescence signal was recorded using a microplate reader (BioTek Synergy 2 Multi-Mode Reader, BioTek, Winooski, VT, USA).
(§3) Cell viability data (% of untreated control cells) was evaluated with Microsoft Excel. Dose-response curves (using a non-linear regression model, log (inhibitor) vs response, variable slope) were generated and IC50 values were determined using Graph Pad Prism 5.02 software (GraphPad Software, San Diego, CA, USA).

[2] = system: MDA-MB-453 breast cancer cell line; assay: CellTiter-Glo IC50 (Table 3); type: cell-based; conditions: Homo sapiens
Experimental: as §1, §2, §3

[3] = system: MiaPaCa2 pancreatic cancer cell line; assay: CellTiter-Glo IC50 (Example 19); type: cell-based; conditions: Homo sapiens, MIA PaCa-2, 72 h
Outline: (§4)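 Luminescent ATP-based viability readout (CellTiter-Glo) after compound exposure of cells plated at 1000 per well. IC50 values derive from dose-response curves of viability relative to untreated controls, fitted by non-linear regression with variable slope.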

[4] = system: H1993 lung carcinoma cell line; assay: CellTiter-Glo IC50 (Example 19); type: cell-based; conditions: Homo sapiens, NCI-H1993, 72 h
Outline: as §4

[5] = system: PC3 human prostate cancer cell line; assay: CellTiter-Glo IC50 (Example 19); type: cell-based; conditions: 72 h
Outline: as §4

[6] = system: HCC827 lung carcinoma cell line; assay: CellTiter-Glo IC50 (Example 19); type: cell-based; conditions: Homo sapiens, 72 h
Outline: as §4

[7] = system: BxPC3 pancreatic cancer cell line; assay: CellTiter-Glo IC50 (Example 19); type: cell-based; conditions: Homo sapiens, BXPC-3, 72 h
Outline: as §4

[8] = system: LNCap human prostate cancer cell line; assay: CellTiter-Glo IC50 (Example 19); type: cell-based; conditions: 72 h
Outline: as §4

[9] = system: H520 lung carcinoma cell line; assay: CellTiter-Glo IC50 (Example 19); type: cell-based; conditions: Homo sapiens, NCI-H520, 72 h
Outline: as §4

[10] = system: A549 lung carcinoma cell line; assay: CellTiter-Glo IC50 (Example 19); type: cell-based; conditions: Homo sapiens, 72 h
Outline: as §4

[11] = system: EBC-1 lung cancer cell line; assay: High-throughput screening, CellTiter-Glo cell viability assay at 100 nM; type: cell-based, human; conditions: Homo sapiens, EBC-1, HTS, compounds at 100 nM, 72 h, read-out: cytotoxicity expressed in IC50, EBC-1 (results of High throughput screening)
[12] = system: H2228 lung cancer cell line; assay: as above; type: cell-based, human; conditions: Homo sapiens, NCI-H2228, HTS, compounds at 100 nM, 72 h, read-out: cytotoxicity expressed in IC50, H2228 (results of High throughput screening)
[13] = system: EBC-1 cell line; assay: Additional in vitro IC50 tests (Table 3); type: cell-based; conditions: Homo sapiens
Experimental: as §2, §3

[14] = system: SCC-25 cell line; assay: Additional in vitro IC50 tests (Table 3); type: cell-based; conditions: Homo sapiens
Experimental: as §2, §3

[15] = system: H2228 cell line; assay: Additional in vitro IC50 tests (Table 3); type: cell-based; conditions: Homo sapiens, NCI-H2228
Experimental: as §2, §3

[16] = system: Fadu cell line; assay: Additional in vitro IC50 tests (Table 3); type: cell-based; conditions: Homo sapiens
Experimental: as §2, §3

[17] = system: Detroit 562 cell line; assay: Additional in vitro IC50 tests (Table 3); type: cell-based; conditions: Homo sapiens
Experimental: as §2, §3

[18] = system: representative cell lines; assay: Cytotoxicity on representative cell lines (summary statement); type: cell-based; conditions: Homo sapiens; summary range, ca.
[19] = system: A2058 (human metastatic melanoma) cells; assay: Colorimetric alamarBlue assay, long treatment; conditions: Homo sapiens, A2058, 72 h, read-out: cytotoxicity expressed in IC50, A-2058
[20] = system: COLO-205 (human colorectal adenocarcinoma) cells; assay: Colorimetric alamarBlue assay, long treatment; conditions: COLO 205, 72 h, read-out: cytotoxicity expressed in IC50, COLO-205

Structure (SMILES): O=C1C2=C(CCN(Cc3cc(F)cc(F)c3)C2)N2CCN=C2N1Cc1ccc(F)cc1 [I/7, 4-(4-Fluorobenzyl)-7-(3,5-difluorobenzyl)-2,4,6,7,8,9-hexahydroimidazo[1,2-a]pyrido[3,4-e]pyrimidin-5(1H)-one]
- melting point: 190.5 °C
- IC50 [1]: 2 nM
- IC50 [2]: 1 nM
- IC50 [3]: 11 nM
- IC50 [4]: 10 nM
- IC50 [5]: 9 nM
- IC50 [6]: 13 nM
- IC50 [7]: 12 nM
- IC50 [8]: 5 nM
- IC50 [9]: 7 nM
- IC50 [10]: 8 nM
- IC50 [11]: < 100 nM
- IC50 [12]: < 100 nM
- IC50 [13]: 9 nM
- IC50 [14]: 13 nM
- IC50 [15]: 10 nM
- IC50 [16]: 10 nM
- IC50 [17]: 3 nM
- IC50 [18]: 3 to 8 nM

Structure (SMILES): O=C1C2=C(CCN(Cc3cc(F)cc(F)c3)C2)N2CCN=C2N1Cc1ccc(C(F)(F)F)cc1 [I/30, 7-(3,5-Difluorobenzyl)-4-(4-(trifluoromethyl)benzyl)-2,4,6,7,8,9-hexahydroimidazo[1,2-a]pyrido[3,4-e]pyrimidin-5(1H)-one]
- melting point: 168 °C
- IC50 [1]: < 1 nM
- IC50 [2]: < 1 nM
- IC50 [3]: 3 nM
- IC50 [4]: 4 nM
- IC50 [5]: 2 nM
- IC50 [6]: 5 nM
- IC50 [7]: 4 nM
- IC50 [8]: 2 nM
- IC50 [9]: 3 nM
- IC50 [10]: 4 nM
- IC50 [11]: < 100 nM
- IC50 [12]: < 100 nM
- IC50 [13]: 5 nM
- IC50 [14]: 6 nM
- IC50 [15]: 5 nM
- IC50 [16]: 5 nM
- IC50 [17]: 2 nM
- IC50 [18]: 3 to 8 nM

Structure (SMILES): O=C1C2=C(CCN(Cc3cccc(F)c3)C2)N2CCN=C2N1Cc1ccc(C(F)(F)F)cc1 [I/3, reference compound]
- IC50 [19]: > 10000 nM
- IC50 [20]: > 10000 nM
- IC50 [11]: < 100 nM
- IC50 [12]: < 100 nM

Structure (SMILES): [N-]=[N+]=Nc1cccc(CN2CCC3=C(C2)C(=O)N(Cc2ccc(C(F)(F)F)cc2)C2=NCCN23)c1 [I/111, 7-(3-Azidobenzyl)-4-(4-(trifluoromethyl)benzyl)-2,4,6,7,8,9-hexahydroimidazo[1,2-a]pyrido[3,4-e]pyrimidin-5(1H)-one]
- melting point: 128.8 °C
- IC50 [1]: 1 nM
- IC50 [2]: < 1 nM
- IC50 [3]: 10 nM
- IC50 [4]: 6 nM
- IC50 [5]: 7 nM
- IC50 [6]: 12 nM
- IC50 [7]: 13 nM
- IC50 [8]: 5 nM
- IC50 [9]: 6 nM
- IC50 [10]: 8 nM
- IC50 [11]: < 100 nM
- IC50 [12]: < 100 nM
- IC50 [13]: 8 nM
- IC50 [14]: 15 nM
- IC50 [15]: 13 nM
- IC50 [16]: 11 nM
- IC50 [17]: 3 nM

Structure (SMILES): O=C1C2=C(CCN(Cc3ccccc3)C2)N2CCN=C2N1Cc1ccc(C(F)(F)F)cc1 [I/1, reference compound]
- IC50 [1]: 24 nM
- IC50 [2]: 16 nM
- IC50 [19]: > 10000 nM
- IC50 [3]: 76 nM
- IC50 [4]: 90 nM
- IC50 [5]: 80 nM
- IC50 [6]: 105 nM
- IC50 [7]: 110 nM
- IC50 [8]: 52 nM
- IC50 [9]: 73 nM
- IC50 [10]: 60 nM
- IC50 [20]: 250 nM
- IC50 [11]: < 100 nM
- IC50 [12]: > 100 nM
- IC50 [13]: 76 nM
- IC50 [14]: 166 nM
- IC50 [15]: 105 nM
- IC50 [16]: 90 nM
- IC50 [17]: 32 nM

Structure (SMILES): O=C1C2=C(CCN(Cc3cc(F)cc(F)c3)C2)N2CCN=C2N1Cc1ccc(Cl)cc1 [I/124, 4-(4-Chlorobenzyl)-7-(3,5-difluorobenzyl)-2,4,6,7,8,9-hexahydroimidazo[1,2-a]pyrido[3,4-e]pyrimidin-5(1H)-one]
- melting point: 162.4 °C
- IC50 [13]: 3 nM
- IC50 [14]: 4 nM
- IC50 [15]: 3 nM
- IC50 [16]: 2 nM
- IC50 [17]: < 1 nM

Structure (SMILES): [N-]=[N+]=Nc1ccc(CN2C(=O)C3=C(CCN(Cc4cc(F)cc(F)c4)C3)N3CCN=C23)cc1 [I/107, 4-(4-Azidobenzyl)-7-(3,5-difluorobenzyl)-2,4,6,7,8,9-hexahydroimidazo[1,2-a]pyrido[3,4-e]pyrimidin-5(1H)-one]
- melting point: 155.5 °C
- IC50 [1]: 3 nM
- IC50 [2]: 2 nM
- IC50 [3]: 16 nM
- IC50 [4]: 12 nM
- IC50 [5]: 11 nM
- IC50 [6]: 15 nM
- IC50 [7]: 14 nM
- IC50 [8]: 5 nM
- IC50 [9]: 8 nM
- IC50 [10]: 16 nM
- IC50 [11]: < 100 nM
- IC50 [12]: < 100 nM
- IC50 [13]: 17 nM
- IC50 [14]: 31 nM
- IC50 [15]: 24 nM
- IC50 [16]: 19 nM
- IC50 [17]: 7 nM
